Measured values: patent US12371454B2, “Cyclic peptide compound having Kras inhibitory action” (priority 2019, dated 2025)
Positions of bridges follow the written chain, without caps; N, C: chain ends. Non-standard residues stand in square brackets, D forms with d. Residues, ends and D or L forms follow the SMILES beside them. *: point of attachment. hPhe(3-Cl-4-CF3) = N[C@@H](CCc1ccc(C(F)(F)F)c(Cl)c1)C(=O)O; hPhe(3-F,4-CF3) = N[C@@H](CCc1ccc(C(F)(F)F)c(F)c1)C(=O)O; 3Oxa8azabicyclo(3.2.1)octane = C1CC2COCC1N2*; NMePhe(4-Me) = CN[C@@H](Cc1ccc(C)cc1)C(=O)O; NMeGly(cPent) = CN[C@H](C(=O)O)C1CCCC1; Ala(cPent) = N[C@@H](CC1CCCC1)C(=O)O; Gly(cPent) = N[C@H](C(=O)O)C1CCCC1; NMeCha = CN[C@@H](CC1CCCCC1)C(=O)O; NMehLeu = CN[C@@H](CCC(C)C)C(=O)O; NMeAhp(2) = CCCCC[C@H](NC)C(=O)O; NMeCba = CN[C@@H](CC1CCC1)C(=O)O; NMeChg = CN[C@H](C(=O)O)C1CCCCC1; NMeD = CN[C@@H](CC(=O)O)C(=O)O; NMeL = CN[C@@H](CC(C)C)C(=O)O; NMeNle = CCCC[C@H](NC)C(=O)O; NMeV = CN[C@H](C(=O)O)C(C)C; Morpholide = C1CN(*)CCO1; NMeA = CN[C@@H](C)C(=O)O; Piperidide = C1CCN(*)CC1; Pyrrolidide = C1CCN(*)C1; Ac5c = NC1(C(=O)O)CCCC1; Aze = O=C(O)[C@@H]1CCN1; Ac4c = NC1(C(=O)O)CCC1; Ac3c = NC1(C(=O)O)CC1; Sar = CNCC(=O)O

Experiments:
[1] = tested on: Human pancreatic cancer cell line AsPC-1; assay: Measurement of AsPC-1 cell growth inhibition (AsPC-1 CGI); type: cell-based; details: 96 h
How it was run: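 AsPC-1 cells in 15% FBS RPMI-1640 were exposed to test compound for 96 hours at 37° C, with CellTiter-Glo as endpoint.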

[2] = target: T1, Kras and SOS1 (biotin-tagged human Kras loaded with GDP, His-tagged human SOS1) (Homo sapiens, UniProt P01116, G12D); assay: Protein-protein interaction inhibition between Kras and SOS1 (KrasGl2D-SOS PPI) using AlphaScreen; type: binding; details: AlphaScreen; biotin-tagged human Kras loaded with GDP, His-tagged human SOS1; read-out: KRAS G12D-SOS PPI IC50
T1 construct: made in house; host or cells: E. coli (stated for Kras only)
T1 sequence (P01116 1-188 isoform P01116-2 G12D): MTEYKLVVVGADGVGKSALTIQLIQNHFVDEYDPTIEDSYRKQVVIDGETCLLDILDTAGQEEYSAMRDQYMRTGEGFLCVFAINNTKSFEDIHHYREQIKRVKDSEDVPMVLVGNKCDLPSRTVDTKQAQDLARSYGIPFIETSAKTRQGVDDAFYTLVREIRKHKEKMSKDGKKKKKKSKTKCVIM
How it was run: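 Energy transfer from nickel-chelate donor beads bound to His-SOS1 to streptavidin acceptor beads bound to biotin-Kras, expressed in E. coli and loaded with GDP after purification, was monitored. Donors were excited at 680 nm; singlet oxygen reaching acceptors gave emission read at 520-620 nm.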

| SMILES | IC50 [1] [nM] | IC50 [2] [nM] |
| --- | --- | --- |
| CC[C@H](C)[C@@H]1NC(=O)[C@H](CC(C)C)N(C)C(=O)C[C@@H](C(=O)N2CCCCC2)N(C)C(=O)[C@H](C2CCCCC2)N(C)C(=O)C2(CCC2)NC(=O)[C@@H]2CCCN2C(=O)[C@H](CCc2ccc(C(F)(F)F)c(Cl)c2)NC(=O)CN(C)C(=O)[C@H](CC2CCCCC2)N(C)C(=O)CN(C)C(=O)CN(C)C1=O [Compound 1821] ([NMeL]I[Sar][Sar][NMeCha][Sar][hPhe(3-Cl-4-CF3)]P[Ac4c][NMeChg][NMeD]-Piperidide; lactam N-11) | 20 to 50 | 0.99 |
| CC(C)C[C@H]1C(=O)N[C@@H](C2CCCC2)C(=O)N(C)CC(=O)N(C)CC(=O)N(C)[C@@H](CC2CCCCC2)C(=O)N(C)CC(=O)N[C@@H](CCc2ccc(C(F)(F)F)c(Cl)c2)C(=O)N2CCC[C@H]2C(=O)NC2(CCCC2)C(=O)N(C)[C@@H](C2CCCCC2)C(=O)N(C)[C@H](C(=O)N2CCCCC2)CC(=O)N1C [Compound 1824] ([NMeL][Gly(cPent)][Sar][Sar][NMeCha][Sar][hPhe(3-Cl-4-CF3)]P[Ac5c][NMeChg][NMeD]-Piperidide; lactam N-11) | 50 to 100 | 0.75 |
| CC[C@H](C)[C@@H]1NC(=O)[C@H](CC(C)C)N(C)C(=O)C[C@@H](C(=O)N2CCCCC2)N(C)C(=O)[C@H](C(C)C)N(C)C(=O)C2(CCCC2)NC(=O)[C@@H]2CCCN2C(=O)[C@H](CCc2ccc(C(F)(F)F)c(Cl)c2)NC(=O)CN(C)C(=O)[C@H](C2CCCC2)N(C)C(=O)[C@@H]2CCN2C(=O)[C@H](C)N(C)C1=O [Compound 1825] ([NMeL]I[NMeA][Aze][NMeGly(cPent)][Sar][hPhe(3-Cl-4-CF3)]P[Ac5c][NMeV][NMeD]-Piperidide; lactam N-11) | 100 to 500 | 3.4 |
| CC[C@H](C)[C@@H]1NC(=O)[C@H](CC(C)C)N(C)C(=O)C[C@@H](C(=O)N2CCCCC2)N(C)C(=O)[C@H](C2CCCCC2)N(C)C(=O)C2(CCCC2)NC(=O)[C@@H]2CCCN2C(=O)[C@H](CCc2ccc(C(F)(F)F)c(Cl)c2)NC(=O)CN(C)C(=O)[C@H](C(C)C)N(C)C(=O)CN(C)C(=O)CN(C)C1=O [Compound 1829] ([NMeL]I[Sar][Sar][NMeV][Sar][hPhe(3-Cl-4-CF3)]P[Ac5c][NMeChg][NMeD]-Piperidide; lactam N-11) | 100 to 500 | 1.5 |
| CC[C@H](C)[C@@H]1NC(=O)[C@H](CC(C)C)N(C)C(=O)C[C@@H](C(=O)N2CCCCC2)N(C)C(=O)[C@H](C2CCCCC2)N(C)C(=O)C2(CCCC2)NC(=O)[C@@H]2CCCN2C(=O)[C@H](CCc2ccc(C(F)(F)F)c(Cl)c2)NC(=O)CN(C)C(=O)[C@H](CCC(C)C)N(C)C(=O)CN(C)C(=O)CN(C)C1=O [Compound 1830] ([NMeL]I[Sar][Sar][NMehLeu][Sar][hPhe(3-Cl-4-CF3)]P[Ac5c][NMeChg][NMeD]-Piperidide; lactam N-11) | 100 to 500 | 1.6 |
| CCCC[C@H]1C(=O)N(C)CC(=O)N[C@@H](CCc2ccc(C(F)(F)F)c(Cl)c2)C(=O)N2CCC[C@H]2C(=O)NC2(CCCC2)C(=O)N(C)[C@@H](C2CCCCC2)C(=O)N(C)[C@H](C(=O)N2CCCCC2)CC(=O)N(C)[C@@H](CC(C)C)C(=O)N[C@@H]([C@@H](C)CC)C(=O)N(C)CC(=O)N(C)CC(=O)N1C [Compound 1832] ([NMeL]I[Sar][Sar][NMeNle][Sar][hPhe(3-Cl-4-CF3)]P[Ac5c][NMeChg][NMeD]-Piperidide; lactam N-11) | 100 to 500 | 1 |
| CC[C@H](C)[C@@H]1NC(=O)[C@H](C2CCCC2)N(C)C(=O)C[C@@H](C(=O)N2CCCCC2)N(C)C(=O)[C@H](C2CCCCC2)N(C)C(=O)C2(CCCC2)NC(=O)[C@@H]2CCCN2C(=O)[C@H](CCc2ccc(C(F)(F)F)c(Cl)c2)NC(=O)CN(C)C(=O)[C@H](CC2CCCCC2)N(C)C(=O)CN(C)C(=O)CN(C)C1=O [Compound 1835] ([NMeGly(cPent)]I[Sar][Sar][NMeCha][Sar][hPhe(3-Cl-4-CF3)]P[Ac5c][NMeChg][NMeD]-Piperidide; lactam N-11) | 50 to 100 | 1.1 |
| CC(C)C[C@H]1C(=O)N[C@@H](CC2CCCC2)C(=O)N(C)CC(=O)N(C)CC(=O)N(C)[C@@H](CC2CCCCC2)C(=O)N(C)CC(=O)N[C@@H](CCc2ccc(C(F)(F)F)c(Cl)c2)C(=O)N2CCC[C@H]2C(=O)NC2(CCCC2)C(=O)N(C)[C@@H](C2CCCCC2)C(=O)N(C)[C@H](C(=O)N2CCCCC2)CC(=O)N1C [Compound 1838] ([NMeL][Ala(cPent)][Sar][Sar][NMeCha][Sar][hPhe(3-Cl-4-CF3)]P[Ac5c][NMeChg][NMeD]-Piperidide; lactam N-11) | 100 to 500 | 2.6 |
| CC[C@H](C)[C@@H]1NC(=O)[C@H](CC(C)C)N(C)C(=O)C[C@@H](C(=O)N2CCCC2)N(C)C(=O)[C@H](C2CCCC2)N(C)C(=O)C2(CCCC2)NC(=O)[C@@H]2CCCN2C(=O)[C@H](CCc2ccc(C(F)(F)F)c(Cl)c2)NC(=O)CN(C)C(=O)[C@H](Cc2ccc(C)cc2)N(C)C(=O)[C@@H]2CCN2C(=O)[C@H](C)N(C)C1=O [Compound 1840] ([NMeL]I[NMeA][Aze][NMePhe(4-Me)][Sar][hPhe(3-Cl-4-CF3)]P[Ac5c][NMeGly(cPent)][NMeD]-Pyrrolidide; lactam N-11) | 20 to 50 | 1.2 |
| CC[C@H](C)[C@@H]1NC(=O)[C@H](CC(C)C)N(C)C(=O)C[C@@H](C(=O)N2CCCCC2)N(C)C(=O)[C@H](C2CCCCC2)N(C)C(=O)C2(CC2)NC(=O)[C@@H]2CCCN2C(=O)[C@H](CCc2ccc(C(F)(F)F)c(Cl)c2)NC(=O)CN(C)C(=O)[C@H](CC2CCCCC2)N(C)C(=O)CN(C)C(=O)CN(C)C1=O [Compound 1845] ([NMeL]I[Sar][Sar][NMeCha][Sar][hPhe(3-Cl-4-CF3)]P[Ac3c][NMeChg][NMeD]-Piperidide; lactam N-11) | 100 to 500 | 0.84 |
| CCCCC[C@H]1C(=O)N(C)CC(=O)N[C@@H](CCc2ccc(C(F)(F)F)c(Cl)c2)C(=O)N2CCC[C@H]2C(=O)NC2(CCCC2)C(=O)N(C)[C@@H](C2CCCCC2)C(=O)N(C)[C@H](C(=O)N2CCCCC2)CC(=O)N(C)[C@@H](CC(C)C)C(=O)N[C@@H]([C@@H](C)CC)C(=O)N(C)CC(=O)N(C)CC(=O)N1C [Compound 1846] ([NMeL]I[Sar][Sar][NMeAhp(2)][Sar][hPhe(3-Cl-4-CF3)]P[Ac5c][NMeChg][NMeD]-Piperidide; lactam N-11) | 100 to 500 | 1.1 |
| CC[C@H](C)[C@@H]1NC(=O)[C@H](C)N(C)C(=O)C[C@@H](C(=O)N2CCOCC2)N(C)C(=O)[C@H](C2CCCCC2)N(C)C(=O)C2(CCCC2)NC(=O)[C@@H]2CCCN2C(=O)[C@H](CCc2ccc(C(F)(F)F)c(Cl)c2)NC(=O)CN(C)C(=O)[C@H](CC2CCCCC2)N(C)C(=O)CN(C)C(=O)CN(C)C1=O [Compound 1847] ([NMeA]I[Sar][Sar][NMeCha][Sar][hPhe(3-Cl-4-CF3)]P[Ac5c][NMeChg][NMeD]-Morpholide; lactam N-11) | 100 to 500 | 0.63 |
| CC[C@H](C)[C@@H]1NC(=O)[C@H](CC(C)C)N(C)C(=O)C[C@@H](C(=O)N2CCCCC2)N(C)C(=O)[C@H](C2CCCC2)N(C)C(=O)C2(CCCC2)NC(=O)[C@@H]2CCCN2C(=O)[C@H](CCc2ccc(C(F)(F)F)c(Cl)c2)NC(=O)CN(C)C(=O)[C@H](Cc2ccc(C)cc2)N(C)C(=O)CN(C)C(=O)CN(C)C1=O [Compound 1850] ([NMeL]I[Sar][Sar][NMePhe(4-Me)][Sar][hPhe(3-Cl-4-CF3)]P[Ac5c][NMeGly(cPent)][NMeD]-Piperidide; lactam N-11) | 20 to 50 | 0.6 |
| CC[C@H](C)[C@@H]1NC(=O)[C@H](CC(C)C)N(C)C(=O)C[C@@H](C(=O)N2CCCCC2)N(C)C(=O)[C@H](CC2CCC2)N(C)C(=O)C2(CCCC2)NC(=O)[C@@H]2CCCN2C(=O)[C@H](CCc2ccc(C(F)(F)F)c(Cl)c2)NC(=O)CN(C)C(=O)[C@H](CC2CCCCC2)N(C)C(=O)[C@@H]2CCN2C(=O)[C@H](C)N(C)C1=O [Compound 1860] ([NMeL]I[NMeA][Aze][NMeCha][Sar][hPhe(3-Cl-4-CF3)]P[Ac5c][NMeCba][NMeD]-Piperidide; lactam N-11) | 100 to 500 | 11 |
| CC[C@H](C)[C@@H]1NC(=O)[C@H](CC(C)C)N(C)C(=O)C[C@@H](C(=O)N(C)C)N(C)C(=O)[C@H](C(C)C)N(C)C(=O)C2(CCCC2)NC(=O)[C@@H]2CCCN2C(=O)[C@H](CCc2ccc(C(F)(F)F)c(Cl)c2)NC(=O)CN(C)C(=O)[C@H](Cc2ccc(C)cc2)N(C)C(=O)CN(C)C(=O)CN(C)C1=O [Compound 1867] ([NMeL]I[Sar][Sar][NMePhe(4-Me)][Sar][hPhe(3-Cl-4-CF3)]P[Ac5c][NMeV][NMeD]-NMe2; lactam N-11) | 100 to 500 | 0.73 |
| CC[C@H](C)[C@@H]1NC(=O)[C@H](CC(C)C)N(C)C(=O)C[C@@H](C(=O)N2C3CCC2COC3)N(C)C(=O)[C@H](C2CCCCC2)N(C)C(=O)C2(CCCC2)NC(=O)[C@@H]2CCCN2C(=O)[C@H](CCc2ccc(C(F)(F)F)c(Cl)c2)NC(=O)CN(C)C(=O)[C@H](Cc2ccc(C)cc2)N(C)C(=O)CN(C)C(=O)CN(C)C1=O [Compound 1869] ([NMeL]I[Sar][Sar][NMePhe(4-Me)][Sar][hPhe(3-Cl-4-CF3)]P[Ac5c][NMeChg][NMeD]-{3Oxa8azabicyclo(3.2.1)octane}; lactam N-11) | 50 to 100 | 0.76 |
| CC[C@H](C)[C@@H]1NC(=O)[C@H](CC(C)C)N(C)C(=O)C[C@@H](C(=O)N2CCCC2)N(C)C(=O)[C@H](C2CCCCC2)N(C)C(=O)C2(CCCC2)NC(=O)[C@@H]2CCCN2C(=O)[C@H](CCc2ccc(C(F)(F)F)c(F)c2)NC(=O)CN(C)C(=O)[C@H](CC2CCCCC2)N(C)C(=O)CN(C)C(=O)CN(C)C1=O [Compound 1870] ([NMeL]I[Sar][Sar][NMeCha][Sar][hPhe(3-F,4-CF3)]P[Ac5c][NMeChg][NMeD]-Pyrrolidide; lactam N-11) | 20 to 50 | 0.74 |
